Legend:
[1] = system: C8166; assay: Tested against HIV-1 […] for Inhibition of viral replication by determining reduction of syncytia formation and antigen gp120 in C8166 cells, estimated by ELISA; format: functional, cell-based; settings: Homo sapiens
[2] = system: C8166; assay: Compound was evaluated for its cytotoxicity against C8166 cell line; format: functional; settings: Homo sapiens, read-out: TC50 (the source's name)

Structure (SMILES)	EC50 [1]	CC50 [2]
CCCCCCCOn1c(CCCCCC)nc2c(C)cccc21	40 µM	–
CC(C)=CCN1Cc2cc(Cl)cc3[nH]c(=S)n(c23)C[C@@H]1C	–	62 µM
C=CCOn1c(C=C)nc2c(C)cccc21	16 µM	16 µM
C=CCOn1c(C=C)nc2ccc(OC)cc21	80 µM	80 µM
Cc1cn([C@H]2C[C@H](N=[N+]=[N-])[C@@H](CO)O2)c(=O)[nH]c1=O [ZIDOVUDINE]	–	> 1000 µM

Further lines, with some results ahead:

EC50 [1]	Structure (SMILES)	CC50 [2]
0.5 µM	CCCCOn1c(CCC)nc2c(C)cccc21	–
10 µM	CC(C)=CCOn1c(C=C(C)C)nc2c(C)cccc21	50 µM
8 µM	CCOn1c(C)nc2c(C)cccc21	–
8 µM	CCCCCOn1c(CCCC)nc2c(C)cccc21	–
16 µM	COc1ccc2nc(C=C(C)C)n(OCC=C(C)C)c2c1	80 µM
10 µM	CC(C)=CCOn1c(C=C(C)C)nc2ccc(C)cc21	50 µM
16 µM	C=CCOn1c(C=C)nc2ccc(C)cc21	20 µM

— ChEMBL document CHEMBL1151996, “Structure-activity relationships of anti-HIV-1 N-alkoxy- and N-allyloxy-benzimidazoles” (Bioorg Med Chem Lett, 1997)
